For 28 molecules, IC50 and IC90 results are on record in ChEMBL document CHEMBL4483862, “Open-source discovery of chemical leads for next-generation chemoprotective antimalarials” (2018).

For the assay, the system named is Plasmodium berghei. Kind of assay: Luciferase/luciferin-expressing antifolate-resistant parasites were used to infect a culture of HepG2 cells that were pre-incubated with compounds. Infected hepatocytes emit light due to the luciferase reaction. Assay results are presented as the percent inhibition of light emission compared to control. […]. It counts as functional. As to conditions: sporozoite; for IC90: read-out: LUCIFERASE INFECTION ASSAY - IC90.

Where [1] appears, read: read-out: LUCIFERASE INFECTION ASSAY - IC50.

The term IC50 denotes the concentration that gives 50% inhibition. Broadly, the IC90 is the concentration at which the effect reaches the 90% level. Take `COc1cc(C(O)c2cc(C(F)(F)F)cc(C(F)(F)F)c2)cc(OC)c1OC` (stereo unspecified): the IC90 is greater than 8.04 µM. Under setting [1], the half-maximal inhibitory concentration (IC50) came to 7.33 µM.
In the case of `Fc1ccc(-c2nc3ccnc(Nc4ccccc4)c3[nH]2)cc1F`, the IC90 is greater than 10 µM. In addition, where the note is “PBLUC_HILL_SLOPE 2.79, PBLUC_R_SQUARED 0.219, read-out: LUCIFERASE INFECTION ASSAY - IC50”, the IC50 came out at 5.41 µM.
As to `CCn1c2ccccc2c2cc(NC(=O)CN3C(=O)NC4(CCCc5ccccc54)C3=O)ccc21` (stereo unspecified), the IC90 was found to be 9.72 µM. For the setting “FFLUC_HILL_SLOPE 13.4, FFLUC_R_SQUARED 0.411, HEPG2TOX_HILL_SLOPE 9.13, HEPG2TOX_R_SQUARED 0.498, PBLUC_HILL_SLOPE 3.53, PBLUC_R_SQUARED 0.448, read-out: LUCIFERASE INFECTION ASSAY - IC50”, the IC50 worked out at 5.21 µM.
For the molecule `CC1CN(CC(O)COCc2ccc(Cl)cc2)CCN1CC(O)COCc1ccc(Cl)cc1` (stereo unspecified), the concentration for an effect of 90% (IC90) is greater than 10 µM. For the same molecule, for the setting “HEPG2TOX_HILL_SLOPE 0.385, HEPG2TOX_R_SQUARED 0.947, PBLUC_HILL_SLOPE 12.7, PBLUC_R_SQUARED 0.144, read-out: LUCIFERASE INFECTION ASSAY - IC50”, the half-inhibitory concentration (IC50) came to 9.06 µM.
With `O=C(Nc1ccccc1)c1ccc(CN2CCCC(C(F)(F)F)C2)cc1` (stereo unspecified), the IC90 is 8.25 µM. Besides, the IC50 under setting [1] was 2.2 µM.
Take `C=CCc1ccccc1OCC(O)CNC(C)(C)CC(C)(C)C` (stereo unspecified): the IC90 was 4.91 µM. Further, where the note is “HEPG2TOX_HILL_SLOPE 15.1, HEPG2TOX_R_SQUARED 0.905, PBLUC_HILL_SLOPE 217, PBLUC_R_SQUARED 0.361, read-out: LUCIFERASE INFECTION ASSAY - IC50”, the IC50 worked out at 4.86 µM.
For `CCO/C=N\C1=C(C#N)C(c2ccc(F)cc2)c2ccc3ccccc3c2O1` (stereo unspecified), the IC90 is greater than 8.86 µM. For the same molecule, under setting [1], the IC50 is greater than 8.86 µM.
As for `Cc1ccc(CCC2CCN(C(=O)c3ccc(NS(=O)(=O)c4cccs4)cc3O)CC2)cc1`, the IC90 was greater than 10 µM. The concentration for half-maximal inhibition (IC50) (FFLUC_HILL_SLOPE 12, FFLUC_R_SQUARED 0.0293, HEPG2TOX_HILL_SLOPE 12.4, HEPG2TOX_R_SQUARED 0.101, read-out: LUCIFERASE INFECTION ASSAY - IC50) was greater than 10 µM.
As for `CC1CC(NC(=S)NCc2csc3ccccc23)CC(C)(C)C1` (stereo unspecified), the IC90 was greater than 9.52 µM. Moreover, the IC50 (PBLUC_HILL_SLOPE 0.667, PBLUC_R_SQUARED 0.384, read-out: LUCIFERASE INFECTION ASSAY - IC50) was greater than 9.52 µM.
Turning to `COc1ccc2c(-c3sc(Nc4ccc(C(C)C)cc4)c(-c4nc5ccccc5s4)c3N)cc(=O)oc2c1`, the IC90 was found to be 2.94 µM. Further, under “HEPG2TOX_HILL_SLOPE 1.27, HEPG2TOX_R_SQUARED 0.95, PBLUC_HILL_SLOPE 4.32, PBLUC_R_SQUARED 0.419, read-out: LUCIFERASE INFECTION ASSAY - IC50”, the half-inhibitory concentration (IC50) was 1.76 µM.
`O=C1S/C(=C\c2ccccc2)C(=O)N1CCn1cnnn1`: the IC90 was greater than 10 µM. For the same molecule, under setting [1], the IC50 is greater than 10 µM.
In the case of `COc1ccc(-c2cnc3cnc(-c4cccc(OC)c4F)cn23)cc1`, the IC90 is 4.49 µM. Moreover, the IC50 (HEPG2TOX_HILL_SLOPE 1.94, HEPG2TOX_R_SQUARED 0.943, PBLUC_HILL_SLOPE 2.65, PBLUC_R_SQUARED 0.707, read-out: LUCIFERASE INFECTION ASSAY - IC50) came out at 1.96 µM.
For the molecule `CCCNC(=O)c1c(NC(=O)c2cc(F)cc(F)c2)nc2ccccn12`, the IC90 amounted to 2.45 µM. Further, the IC50 (FFLUC_HILL_SLOPE 41.4, FFLUC_R_SQUARED 0.343, HEPG2TOX_HILL_SLOPE 1.12, HEPG2TOX_R_SQUARED 0.682, PBLUC_HILL_SLOPE 5.41, PBLUC_R_SQUARED 0.415, read-out: LUCIFERASE INFECTION ASSAY - IC50) came out at 1.63 µM.
On to `CCCn1c(N)c(C(=O)CNc2ccccc2N2CCCCCC2)c(=O)n(C)c1=O`, for which the 90% effect concentration (IC90) worked out at 5.69 µM. Besides, the half-inhibitory concentration (IC50) (PBLUC_HILL_SLOPE 99.9, PBLUC_R_SQUARED 0.404, read-out: LUCIFERASE INFECTION ASSAY - IC50) came to 5.56 µM.
In the case of `CSc1nnc(Sc2nc(-c3cccnc3)nc3ccccc23)s1`, the IC90 is greater than 10 µM. For the same molecule, the IC50 under setting [1] was greater than 10 µM.
`O=C(c1ccsc1)N1CCc2nc(NCc3cccc(Oc4ccccc4)c3)ncc2C1`: the IC90 is greater than 7.46 µM. Moreover, for the setting “HEPG2TOX_HILL_SLOPE 8.11, HEPG2TOX_R_SQUARED 0.885, read-out: LUCIFERASE INFECTION ASSAY - IC50”, the IC50 is greater than 7.46 µM.
For the molecule `O=C1OC(c2ccccc2)Cc2cc(C(=O)N3CCC(C(=O)Nc4ccccc4)CC3)ccc21` (stereo unspecified), the IC90 was greater than 10 µM. For the same molecule, where the note is “HEPG2TOX_HILL_SLOPE 2.71, HEPG2TOX_R_SQUARED 0.817, PBLUC_HILL_SLOPE 3.44, PBLUC_R_SQUARED 0.218, read-out: LUCIFERASE INFECTION ASSAY - IC50”, the IC50 amounted to 6.51 µM.
In the case of `c1ccn2c(Sc3ncnc4sc5c(c34)CCC5)nnc2c1`, the concentration for an effect of 90% (IC90) is greater than 10 µM. For the same molecule, the concentration for half-maximal inhibition (IC50) (PBLUC_HILL_SLOPE 2.99, PBLUC_R_SQUARED 0.206, read-out: LUCIFERASE INFECTION ASSAY - IC50) worked out at 4.93 µM.
Turning to `O=c1c2ccccc2oc2nc(-c3ccccc3)n(Cc3ccccc3)c(=O)c12`, the concentration for an effect of 90% (IC90) worked out at 4.41 µM. The 50% inhibitory concentration (IC50) (PBLUC_HILL_SLOPE 10.1, PBLUC_R_SQUARED 0.696, read-out: LUCIFERASE INFECTION ASSAY - IC50) was determined as 3.55 µM.
For `Cc1cnc(-c2nc(-c3ccccc3)c3n2CCN(Cc2ccc(C4CCCCO4)s2)C3)cn1` (stereo unspecified), the concentration for an effect of 90% (IC90) was greater than 7 µM. Further, the IC50 (PBLUC_HILL_SLOPE 1.74, PBLUC_R_SQUARED 0.822, read-out: LUCIFERASE INFECTION ASSAY - IC50) came to 3.61 µM.
Regarding `CCN(CC)c1ccc(NC(=O)c2ccc(Br)o2)cc1S(=O)(=O)Nc1ccccc1OC`, the concentration for an effect of 90% (IC90) is 4.43 µM. For the same molecule, where the note is “HEPG2TOX_HILL_SLOPE 1.78, HEPG2TOX_R_SQUARED 0.619, PBLUC_HILL_SLOPE 2.27, PBLUC_R_SQUARED 0.536, read-out: LUCIFERASE INFECTION ASSAY - IC50”, the IC50 turned out to be 1.68 µM.
Consider `O=C(Nc1ccccc1Cc1ccccc1)c1cc2c(nc3sccn32)s1`, for which the IC90 was 4.88 µM. Also, the IC50 (PBLUC_HILL_SLOPE 1.68, PBLUC_R_SQUARED 0.818, read-out: LUCIFERASE INFECTION ASSAY - IC50) came to 1.32 µM.
Turning to `COc1cc(OC)cc(-c2cnc3cnc(-c4ccc(N5CCN(C)CC5)nc4)cn23)c1`, the IC90 was greater than 7.67 µM. Also, the IC50 (HEPG2TOX_HILL_SLOPE 4.69, HEPG2TOX_R_SQUARED 0.215, PBLUC_HILL_SLOPE 12, PBLUC_R_SQUARED 0.625, read-out: LUCIFERASE INFECTION ASSAY - IC50) is 7.27 µM.
For `CCN(CC)S(=O)(=O)c1cccc(-c2nnc(SCc3nc(=O)c4cccc(C)c4[nH]3)n2CC(C)C)c1`, the IC90 is greater than 10 µM. For the same molecule, the IC50 (HEPG2TOX_HILL_SLOPE 0.901, HEPG2TOX_R_SQUARED 0.0979, read-out: LUCIFERASE INFECTION ASSAY - IC50) was greater than 10 µM.
On to `Cc1ccc(N2C(=O)C=CC2=O)cc1Cl`, for which the concentration for an effect of 90% (IC90) is greater than 14.9 µM. The half-inhibitory concentration (IC50) (FFLUC_HILL_SLOPE 79.3, FFLUC_R_SQUARED 0.497, PBLUC_HILL_SLOPE 1.92, PBLUC_R_SQUARED 0.35, read-out: LUCIFERASE INFECTION ASSAY - IC50) came out at 6.38 µM.
Turning to `Cc1ccc(CSc2n[nH]c(=O)n2C2CC3C=CC2C3)cc1` (stereo unspecified), the IC90 was greater than 10.5 µM. In addition, under setting [1], the IC50 is greater than 10.5 µM.
On to `Cc1ccc(Oc2ccc(OCC(=O)NC3CCN(C(C)C)CC3)cc2)cc1`, for which the 90% effect concentration (IC90) is greater than 10 µM. In addition, the half-inhibitory concentration (IC50) under setting [1] was greater than 10 µM.
On to `COC(=O)c1sc(SC)c2c1CC(C)(C)C/C2=N\O`, for which the 90% effect concentration (IC90) was greater than 11 µM. Under setting [1], the IC50 was greater than 11 µM.
